How the values were obtained:
[1] = system: human adipose stem cells (hASCs); test: Quantitative alkaline phosphatase (ALP) activity of hASCs, normalized to DNA, as early osteogenic marker; type: cell-based
Experimental: (§1) The study was conducted in accordance with the ethics committee of the Pirkanmaa Hospital District, Tampere, Finland (R03058). ASCs were isolated from subcutaneous adipose tissue samples obtained with written informed consent from 4 female donors (age, 44±7 years) undergoing elective surgical procedures in the Department of Plastic Surgery, Tampere University Hospital, Tampere, Finland. Isolation of hASCs from adipose tissue samples was carried out by using a mechanical and enzymatic method. The adipose tissue was minced manually into small fragments and digested with collagenase NB 6 GMP Grade (SERVA Electrophoresis GmbH, Heidelberg, Germany) in a water bath at 37° C. under shaking conditions. The digested tissue was centrifuged and filtered in sequential steps through a 100-μm poresize filter to separate the ASCs from the surrounding tissue. Cells were expanded in T75 flasks and passaged after reaching 80% confluency. Expansion was done in DMEM/F-12 1:1 (Life Technologies, Gibco, Carlsbad, Calif., USA) supplemented with 1% l-analyl-l-glutamine (GlutaMAX I; Life Technologies, Gibco), 1% antibiotics (p/s; 100 U/ml penicillin, 0.1 mg/ml streptomycin; Lonza, BioWittaker, Verviers, Belgium) and 10% HS (PAA Laboratories). ASCs were detached by using TrypLE Select (LifeTechnologies, Gibco). Cell surface marker profile (FIG. 1) was analyzed using flow cytometry (FACSAria; BD Biosciences, Erembodegem, Belgium) as described in Patrikoski et al (2013).
The effect obtainable with the present medium and method was studied experimentally. The differentiation into osteogenic cells was analysed following alkaline phosphatase (ALP) as early osteogenic marker and mineralization as a marker for advanced osteogenic process. FIG. 2 illustrates protein expression of alkaline phosphatase (ALP) analysis in various media. Results have been normalized to the amount of DNA. BM denotes basal medium, SB a p38 MAP kinase inhibitor SB 202190 and OM an osteogenic medium. In FIG. 2A these differentiation media results (BM+SB and OM) were compared against BM as a control. In FIG. 2B and 2C results from two cell lines from different patients were analyzed in two time points (after 7 and 14 days) to show the independence on the source (patient-lines) of the present medium and inter-patient predictability in that sense. In these experiments, SB was used in a concentration of 2 μM.
In further experiments, the effect of a concentration gradient of two different p38 MAPK inhibitors, i.e. SB 202190 and JX401, on osteogenic differentiation of hASCs was analysed. First, the effect of SB202190 inhibitor in a concentration range of 2 to 10 μM on hASCs was studied in BM culture conditions. […] In this case, the analysis was performed both in BM and osteogenic medium (OM).
(§2) In the above experiments, the basal medium used was DMEM/F12+5% HSPaa serum. Said p38 MAP kinase inhibitor SB 202190 was from SigmaAldrich, while JX401 was from Calbiochem. Osteogenic medium representing the state of the art, was a base medium supplemented with L-ascorbic acid-2phosphate (AsAP), β-glycerolphosphate, and dexamethasone.

[2] = system: human adipose stem cells (hASCs); test: Quantitative Alizarin Red mineralization assay of hASCs; type: cell-based; details: for peak concentration (Alizarin Red mineralization): 2 or 5 μM tested
Experimental: as §1
FIG. 3 represents quantitated Alizarin Red mineralization analysis of ASCs in basal medium, osteogenic medium, with and without SB inhibitor (2 μM) in time point 21 days.
To analyze how p38MAPK inhibitors affect the progression of osteogenic differentiation, Alizarin Red mineralization assay was performed both in BM and OM conditions. In both culture conditions, SB202190 inhibitor peaked at the concentration of 2 μM, but in OM also 5 μM was functional (FIG. 4C).
as §2

Row | Compound | ALP activity of hASCs ([1]; 2 μM in BM, days 7 and 14, patient cell line 15/12 (FIG. 4B)) | functional concentration peak (ALP activity) ([1]; in BM, 2/5/10 μM tested, days 7 and 14, patient cell line 15/12 (FIG. 4B)) [µM] | most effective concentration (ALP activity) ([1]; in OM, 2/5/10 μM tested, days 7 and 14, patient cell line 15/12 (FIG. 4B)) [µM] | ALP activity of hASCs ([1]; 2 μM in BM, day 14, patient cell line 1/13 (FIG. 4A)) | osteogenic differentiation (ALP) in basal medium compared with osteogenic medium ([1]; 2 μM inhibitor in BM vs OM) | detection of alkaline phosphatase marker / differentiation across patient cell lines ([1]; 2 μM inhibitor, days 7 and 14, different patient cell lines) | ALP activity of hASCs ([1]; 5 μM in BM, day 14, patient cell line 1/13 (FIG. 4A)) | ALP activity of hASCs ([1]; 10 μM in BM, day 14, patient cell line 1/13 (FIG. 4A)) | Alizarin Red mineralization with and without inhibitor ([2]; 2 μM, day 21, patient cell line 41/12 (FIG. 3)) | Alizarin Red mineralization ([2]; 5 μM in OM, day 14, patient cell line 11/13 (FIG. 4C)) | peak concentration (Alizarin Red mineralization) ([2]; in BM, day 14, patient cell line 11/13 (FIG. 4C)) [µM] | peak concentration (Alizarin Red mineralization) ([2]; in OM, day 14, patient cell line 11/13 (FIG. 4C)) [µM]
1 | COc1cc(SC)ccc1C(=O)N1CCC(Cc2ccccc2)CC1 [JX401, 1-[2-Methoxy-4-(methylthio)benzoyl]-4-benzylpiperidine] | effective as compared to the highest concentration | 5 | 2 |  |  |  |  |  |  |  |  | 
2 | Oc1ccc(-c2nc(-c3ccc(F)cc3)c(-c3ccncc3)[nH]2)cc1 [SB202190, 4-(4-Fluorophenyl)-2-(4-hydroxyphenyl)-5-(4-pyridyl)-1H-imidazole] |  |  |  | clearly enhanced | almost equal level as with use of osteogenic medium | detected in every patient cell line | clearly enhanced | diminished compared to the other two concentrations | enhancer of advanced processes of osteogenesis | functional | 2 | 2

Source: patent US20160137982A1, “P38 MAPK INHIBITOR-CONTAINING MEDIUM AND METHOD FOR OSTEOGENIC DIFFERENTIATION” (TAMPEREEN YLIOPISTO, priority 2013, published 2016)
